Results reported in US20140378551A1, “Composition for the Prophylactic Treatment of Neuropathic Pain” (Universite d'Auvergne, priority 2011, published 2014).
Like-named read-outs stand apart in the source and are kept apart here.

Legend:
[1] = system: tyrosine 1472 of the NR2B sub-unit of the NMDA receptor; assay: Western blot of phosphorylated tyrosine 1472 of NR2B at the spinal level; assay type: in vivo, rat
Procedure: The effects of memantine are also evaluated in the expression of the phosphorylation of tyrosine 1472 of the NR2B sub-unit of the NMDA receptor at the spinal level by the Western-blot technique.
The rats are sacrificed by decapitation. The lumbar enlargements (L4-L6) are collected and subjected to lysis at 4° C. in 400 μL of stop buffer (50 mM Hepes, pH 7.5, containing 150 mM NaCl, 10 mM EDTA, 10 mM Na2P2O7, 2 mM Na3VO4, 100 mM NaF 1% Triton, 0.5 mM PMSF, 100 UI/mL Iniprol and 20 μM Leupeptine).
After sonication, two operations of centrifugation at 14,000 rpm at 4° C. are used to retrieve the proteins from the cytoplasm. The supernatant is retrieved and the proteins are determined by colorimetry (BC Assay UP40840A®, Interchim). They are denatured at 100° C. for five minutes in a buffer Tris 100 mM, pH 6.8, containing 6% SDS, 20% Glycerol and 20% bromophenol/(β-mercaptoethanol. Electrophoresis is used to separate the proteins on a polyacrylamide gel. The migration is done at 90 mA for two hours in the following buffer: Tris 50 mM, pH 7.4, containing 380 mM Glycine and 7 mM SDS. The proteins are then transferred to a nitrocellulose membrane (Millipore) for three hours in a buffer Tris 25 mM, pH 8.3, containing 190 mM Glycine, 20% methanol (percentage by volume). The protocols are carried out according to the recommendations of the supplier and differ according to the antibody considered.
After blocking of the non-specific sites with a solution containing 5% of non-fat dried milk, the membrane is incubated throughout the night at […] under agitation with the antibody of interest diluted in the blocking solution, namely an anti-pTyr^1472 NR2B antibody recognizing NR2B phosphorylated on tyrosine 1472 (dilution by volume=1/1000, Millipore).
The membrane is then hybridized for one hour under agitation with an antibody coupled with peroxydase (dilution by volume=1/10 000, Pierce) diluted in the blocking buffer.
The developing is done by chemiluminescence (Super Signal® West Pico
Chemiluminescent Substrate, Pierce). […]

[2] = system: post-operative neuropathic pain; assay: Phase 2 clinical trial, pain self-evaluation after mastectomy and axillary dissection; assay type: in vivo, human; conditions: follow-up after operation, self-evaluation scale 1 to 10; preliminary results
Procedure: A phase 2 clinical trial on the development and evaluation of neuropathic pain was conducted among patients having to undergo mastectomy and axillary dissection. The patients were separated randomly into two groups: • a control group who were to receive lactose as a placebo; and • a group treated by memantine hydrochloride (EBIXA®).
The clinical trial protocol is described in detail in the form referenced NTC014536314 (http://clinicaltrials.gov). […]
The patient's pain was evaluated by asking them to assess their own pain on a numerical scale ranging from 1 to 10 (10 being the maximum stage of pain) for the two weeks following the operation and for three months following the operation. […] The development of neuropathic pain is also evaluated by the DN4 questionnaire on neuropathic pain, and the Questionnaire sur la Douleur de Saint-Antoine (QDSA) or “Saint-Antoine pain questionnaire”. […]
FIG. 7 is a graph showing the preliminary results obtained on the first […] having taken part in these clinical trials (six patients had received the placebo composition and seven patients had received the memantine-hydrochloride-based composition), their pain being evaluated by the method of self-evaluation on a scale of 1 to 10. […]

neuropathic pain in rats = conditions: sciatic nerve ligature or formalin injection, administered during or after the operation (Eisenberg 1995; Carlton 1995), cited from earlier work
[3] = system: neuropathic pain in patients; conditions: cited from earlier work

Question: Which results are given for CC12CC3CC(C)(C1)CC(N)(C3)C2 [memantine, 1-amino-3,5-dimethyl-adamantane]?
Answer: rate of phosphorylation of the tyrosine 1472 residue of NR2B ([1]; SNL rats treated preventively, spinal cord, Western blot): equivalent firstly to that of the non-treated Sham rats and is secondly far lower than that of the operated rats that have not been treated with memantine; phosphorylation of the tyrosine 1472 residue of NR2B ([1]; Sham rats, spinal cord, Western blot): does not significantly diminish the phosphorylation of the tyrosine 1472 residue; phosphorylation of the tyrosine residue at position 1472 (pTyr1472) of NR2B ([1]; summary statement): significantly inhibits the phosphorylation; level of pain versus placebo [2]: patients having received the placebo have a higher level of pain than patients having received memantine; development of neuropathic pain in rats (neuropathic pain in rats): limits the appearance of symptoms of neuropathic pain but only dose-dependently and only for a determined period of time; development of neuropathic pain in rats (neuropathic pain in rats; listed as Memantine): positive effect in the development of neuropathic pain in rats; relief to patients with amputated limb or nerve lesions following surgery ([3]; Nikolajsen et al., 2000): inefficacious; effect in patients who had undergone amputation ([3]; administered just after the operation (Buvanendran et al, 2008)): beneficial effect
